In patent US20140249024A1, “Pesticidal Methods Using Substituted 3-pyridyl Thiazole Compounds and Derivatives for Combating Animal Pests II” (BASF SE, priority 2011, published 2014):

Columns and labels:
Assay type in all cases: in vivo
[1] = tested on: Green Peach Aphid (Myzus persicae); test: Green peach aphid mortality on sprayed bell pepper plants; conditions: 120 h, spray on infested bell pepper plants, determined after 5 days, read-out: mortality in comparison with untreated controls
Excerpt: (§1) The active compounds were formulated in cyclohexanone as a 10,000 ppm solution supplied in tubes. The tubes were inserted into an automated electrostatic sprayer equipped with an atomizing nozzle and they served as stock solutions for which lower dilutions were made in 50% acetone:50% water (v/v). A nonionic surfactant (Kinetic®) was included in the solution at a volume of 0.01% (v/v).
Bell pepper plants at the first true-leaf stage were infested prior to treatment by placing heavily infested leaves from the main colony on top of the treatment plants. Aphids were allowed to transfer overnight to accomplish an infestation of 30-50 aphids per plant and the host leaves were removed. The infested plants were then sprayed by an automated electrostatic plant sprayer equipped with an atomizing spray nozzle. The plants were dried in the sprayer fume hood, removed, and then maintained in a growth room under fluorescent lighting in a 24-hr photoperiod at about 25° C. and about 20-40% relative humidity. Aphid mortality on the treated plants, relative to mortality on untreated control plants, was determined after 5 days.

[2] = tested on: Cotton Aphid (Aphis gossypii); test: Cotton aphid mortality on dipped cotton cotyledons; conditions: 120 h, mortality counts after 5 days, read-out: mortality in comparison with untreated controls
Excerpt: The active compounds were formulated in 50:50 (vol:vol) acetone: water and 100 ppm Kinetica™ surfactant.
Cotton plants at the cotyledon stage (one plant per pot) weare infested by placing a heavily infested leaf from the main colony on top of each cotyledon. The aphids were allowed to transfer to the host plant overnight, and the leaf used to transfer the aphids was removed. The cotyledons were dipped in the test solution and allowed to dry. After 5 days, mortality counts were made.

[3] = tested on: Cowpea Aphid (Aphis craccivora); test: Cowpea aphid test on sprayed potted cowpea plants; conditions: spray on cowpea plants, population reduction assessed after 24, 72 and 120 hours, read-out: mortality in comparison with untreated controls
Description: The active compound was dissolved at the desired concentration in a mixture of 1:1 (vol:vol) distilled water:acetone. The test solution was prepared at the day of use.
Potted cowpea plants colonized with approximately 100-150 aphids of various stages were sprayed after the pest population had been recorded. Population reduction was assessed after 24, 72, and 120 hours.

[4] = tested on: Silverleaf Whitefly (bemisia argentifolii); test: Silverleaf whitefly adult mortality on sprayed cotton plants; conditions: 72 h, spray on cotton plants, whitefly adults, assessed 3 days after treatment, read-out: mortality in comparison with untreated controls
Excerpt: as §1, with “they serve” for “they served”, “dilutions are” for “dilutions were”
Cotton plants at the cotyledon stage (one plant per pot) were sprayed by an automated electrostatic plant sprayer equipped with an atomizing spray nozzle. The plants were dried in the sprayer fume hood and then removed from the sprayer. Each pot was placed into a plastic cup and about 10 to 12 whitefly adults (approximately 3-5 days old) were introduced. The insects were collected using an aspirator and a nontoxic Tygon® tubing connected to a barrier pipette tip. The tip, containing the collected insects, were then gently inserted into the soil containing the treated plant, allowing insects to crawl out of the tip to reach the foliage for feeding. Cups were covered with a reusable screened lid. Test plants were maintained in a growth room at about 25° C. and about 20-40% relative humidity for 3 days, avoiding direct exposure to fluorescent light (24 hour photoperiod) to prevent trapping of heat inside the cup. Mortality was assessed 3 days after treatment, compared to untreated control plants.

Measured: mortality at 500 ppm

FC(F)(F)c1nc(-c2cccnc2)sc1-c1ccn(-c2ncccn2)n1 [C.2, 2-[3-(2-Pyridin-3-yl-4-trifluoromethyl-thiazol-5-yl)-pyrazol-1-yl]-pyrimidine]
≥ 75%: [1] | [2] | [3]

Clc1nc(-c2cccnc2)sc1-c1ccccn1 [C.4, 4-chloro-5-(2-pyridyl)-2-(3-pyridyl)thiazole]
≥ 75%: [1] | [3] | [4]
